Data from patent publication US11628174B1, “Pharmaceutical compositions and methods for treating insomnia” (priority 2022, dated 2023).

Experiments:
[1] = system: anti-IgE-induced release of prostaglandin D2 (PGD2) and leukotrienes C4/D4; release of cytokines; settings: background statement, cited from earlier work
insomnia = assay: Clinical case reports: treatment of patients with insomnia; type: in vivo, human
allergic rhinitis = assay: Clinical case report: allergic rhinitis in a patient with insomnia; type: in vivo, human; settings: Example 1; ebastine 20 mg once a day, about 3 months
REM sleep = settings: background statement; cited from earlier work
[2] = Clinical case reports: tolerability and side effects in patients with insomnia
Description: A patient had insomnia for more than 2 months before they were provided with medications.
A patient had insomnia for more than 3 months. […] After that, they were treated with the combination of ebastine (10 mg) and alprazolam (0.4 mg) daily.

Question: With `CC(C)(C)c1ccc(C(=O)CCCN2CCC(OC(c3ccccc3)c3ccccc3)CC2)cc1` [ebastine, 4-diphenylmethoxy-1-[3-(4-tert-butylbenzoyl)-propyl] piperidine] as the molecule, how does the “anti-IgE-induced release of prostaglandin D2 (PGD2) and leukotrienes C4/D4 (LTC4/D4)” value [1] read?
Answer: Its value is “significantly inhibits”.

Question: And the “release of cytokines, including GM-CSF, tumour necrosis factor-a and interleukin-8” value [1]?
Answer: The value was “inhibited”.

Question: And the “insomnia (difficulty of falling to asleep) improvement” value (insomnia; Example 1, person, ebastine 20 mg once a day, about 3 months)?
Answer: The value was “no improvement”.

Question: What about the allergic rhinitis improvement (allergic rhinitis) of the same molecule?
Answer: The allergic rhinitis improvement was “only improved marginally”.

Question: For `Cc1nnc2n1-c1ccc(Cl)cc1C(c1ccccc1)=NC2` [alprazolam, 8-chloro-1-methyl-6-phenyl-4H-s-triazolo[4,3-a] [1,4]benzodiazepine], which REM latency (REM sleep) is on record?
Answer: The REM latency was “increases”.

Question: And the “length of REM periods and frequency of REM burst activities” value (REM sleep)?
Answer: Its value is “significantly decreases”.

Question: And the “chronic insomnia along with depression, improvement” value (insomnia; Example 2, person, alprazolam 0.8 mg twice daily, 2 months)?
Answer: The value was “no improvement”.

Question: For `CC(C)(C(=O)O)c1ccc(C(=O)CCCN2CCC(OC(c3ccccc3)c3ccccc3)CC2)cc1` [carebastine], which “release of PGD2” value ([1]; metabolite of ebastine) is on record?
Answer: The value was “inhibits”.

Question: With `Cc1ccc(-c2nc3ccc(C)cn3c2CC(=O)N(C)C)cc1` [zolpidem] as the molecule, how does the “tolerability (side effects of headache and dizziness)” value ([2]; Example 3, person, zolpidem 10 mg daily for 1 month) read?
Answer: Its value is “could not tolerate the side effects of headache and dizziness”.

Question: What does the source list for `CN1CCN(C(=O)O[C@H]2c3nccnc3C(=O)N2c2ccc(Cl)cn2)CC1` [eszopiclone]?
Answer: tolerability (side effects of headache and dizziness) ([2]; Example 3, eszopiclone 1 mg daily for 2 weeks): could not tolerate the side effects of headache and dizziness; tolerability (adverse reaction of headache) ([2]; Example 4, person, eszopiclone 1 mg daily for one week): could not tolerate its adverse reaction of headache
